Results published in article PMC10056986 (Pharmaceuticals, 2023).
Read-outs that look alike come from different tables or passages of the source.

Legend:
[1] = tested on: EV71 Shenzhen/120F1/09; test: microbe, parasite or virus in culture; assay type: cell-based, human enterovirus 71; settings: Enterovirus A, EV71, RD, read-out: EC50 for Virus
[2] = Cytotoxicity in parallel to antiviral assay; settings: human
[3] = tested on: HSV-1 GHSV-UL46; test: microbe, parasite or virus in culture; assay type: cell-based, herpes simplex virus type 1; settings: Human alphaherpesvirus 1, Vero C1008, read-out: EC50 for Virus
[4] = Cytotoxicity in parallel to antiviral assay; settings: African green monkey
[5] = tested on: HBV; test: microbe, parasite or virus in culture; assay type: cell-based; settings: Hepatitis B virus, HepG2.2.15, read-out: EC50 for Virus
[6] = in vitro; settings: human
[7] = tested on: Influenza virus A/Mal/302/54 (H1N1); test: microbe, parasite or virus in culture; assay type: cell-based; settings: H1N1, MDCK, read-out: EC50 (mean ± SD)
[8] = tested on: Influenza virus A/PR/8/34 (H1N1); test: microbe, parasite or virus in culture; assay type: cell-based; settings: H1N1|PR/8, MDCK, read-out: EC50 (mean ± SD)
[9] = tested on: Influenza virus A/WS/33 (H1N1); test: microbe, parasite or virus in culture; assay type: cell-based; settings: H1N1, MDCK, read-out: EC50 (mean ± SD)
[10] = tested on: Influenza virus A/WSN/33 (H1N1); test: microbe, parasite or virus in culture; assay type: cell-based; settings: MDCK, read-out: EC50 (mean ± SD)
[11] = tested on: Influenza virus A/Weiss/43(H1N1); test: microbe, parasite or virus in culture; assay type: cell-based; settings: H1N1, MDCK, read-out: EC50 (mean ± SD)
[12] = tested on: Influenza virus B/Lee/40; test: microbe, parasite or virus in culture; assay type: cell-based; settings: MDCK, read-out: EC50 (mean ± SD)
[13] = tested on: A/Anhui/01/2013 (H7N9); test: microbe, parasite or virus in culture; assay type: cell-based, avian influenza virus; settings: Influenza A virus, H7N9, MDCK, read-out: IC50 (mean ± SD)
[14] = tested on: A/Qingyuan/GIRD01/2017 (H7N9); test: microbe, parasite or virus in culture; assay type: cell-based, avian influenza virus; settings: Influenza A virus, H7N9, MDCK, read-out: IC50 (mean ± SD)
[15] = tested on: A/Guangzhou/39715/2014 (H5N6); test: microbe, parasite or virus in culture; assay type: cell-based, avian influenza virus; settings: unidentified influenza virus, H5N6, MDCK, read-out: IC50 (mean ± SD)
[16] = tested on: influenza A virus WSN/33 (H1N1); set-up: species or system BALB/c mice; settings: mouse, in vivo
[17] = tested on: influenza A virus WSN/33 (H1N1); set-up: species or system BALB/c mice; settings: mouse, in vivo; remark: listed apart in the source
[18] = tested on: A/PR/8/34 (H1N1); set-up: species or system BALB/c mice; settings: mouse, in vivo
[19] = tested on: influenza A virus/California/07/2009 (H1N1); set-up: species or system ferrets; settings: in vivo, po, 25 mg/kg/day
[20] = Cytotoxicity in MDCK cells without viral infection; settings: dog
[21] = tested on: MDCK cells; test: Cytotoxicity in MDCK cells without viral infection; settings: MDCK, 37 °C
[22] = tested on: HRV 1B; test: microbe, parasite or virus in culture; assay type: cell-based; settings: Human rhinovirus sp., H1-HeLa, read-out: EC50 for Virus
[23] = Cytotoxicity in parallel to antiviral assay; settings: human; remark: listed apart in the source
[24] = biological target: influenza virus polymerase (PB1, PB2, NP, PA from A/California/04/2009 (H1N1) pdm09) (Influenza A virus, UniProt C3W5R8+C3W5R9); assay type: cell-based
[25] = biological target: ABL1 (Homo sapiens, UniProt P00519); test: biochemical
[26] = biological target: CDK2 (Homo sapiens, UniProt P24941); test: biochemical
[27] = biological target: CK1 alpha (Homo sapiens, UniProt P48729); test: biochemical
[28] = biological target: FGFR1 (Homo sapiens, UniProt P11362); test: biochemical
[29] = biological target: GSK3 beta (Homo sapiens, UniProt P49841); test: biochemical
[30] = biological target: JAK2 (Homo sapiens, UniProt O60674); test: biochemical
[31] = biological target: JNK1 (Homo sapiens, UniProt P45983); test: biochemical
[32] = biological target: LCK (Homo sapiens, UniProt P06239); test: biochemical
[33] = biological target: MAPKAPK2 (Homo sapiens, UniProt P49137); test: biochemical
[34] = biological target: p38 alpha (Homo sapiens, UniProt Q16539); test: biochemical
[35] = biological target: PKA (Homo sapiens, UniProt P17612); test: biochemical
[36] = tested on: Influenza virus A/Hong Kong/8/68 (H3N2); test: microbe, parasite or virus in culture; assay type: cell-based; settings: unidentified influenza virus, H3N2, MDCK, read-out: EC50 (mean ± SD)
[37] = tested on: Influenza virus A/California/07/2009 (H1N1)pdm09; test: microbe, parasite or virus in culture; assay type: cell-based; settings: H1N1, MDCK, read-out: EC50 (mean ± SD)
[38] = tested on: Influenza virus A/California/2/2014 (H3N2); test: microbe, parasite or virus in culture; assay type: cell-based; settings: H3N2, MDCK, read-out: EC50 (mean ± SD)
[39] = tested on: influenza A virus WSN/33 (H1N1); set-up: species or system BALB/c mice; settings: mouse, in vivo; remark: listed apart in the source
[40] = in vitro; settings: dog, CC50 (mean ± SD)
[41] = biological target: Aurora A (Homo sapiens, UniProt O14965); test: biochemical
[42] = biological target: CAMK2 alpha (Homo sapiens, UniProt Q9UQM7); test: biochemical
[43] = biological target: CHK1 (Homo sapiens, UniProt O14757); test: biochemical
[44] = biological target: DYRK3 (Homo sapiens, UniProt O43781); test: biochemical
[45] = biological target: EPHA2 (Homo sapiens, UniProt P29317); test: biochemical
[46] = biological target: MAP4K4 (Homo sapiens, UniProt O95819); test: biochemical
[47] = biological target: KDR (Homo sapiens, UniProt P35968); test: biochemical
[48] = biological target: MINK (Homo sapiens, UniProt Q8N4C8); test: biochemical
[49] = biological target: MST4 (Homo sapiens, UniProt Q9P289); test: biochemical
[50] = biological target: PDK1 (Homo sapiens, UniProt O15530); test: biochemical
[51] = biological target: SRC (Homo sapiens, UniProt P12931); test: biochemical
[52] = biological target: TAOK2 (Homo sapiens, UniProt Q9UL54); test: biochemical
[53] = biological target: TNIK (Homo sapiens, UniProt Q9UKE5); test: biochemical

Sequence of KDR (P35968 20-1356): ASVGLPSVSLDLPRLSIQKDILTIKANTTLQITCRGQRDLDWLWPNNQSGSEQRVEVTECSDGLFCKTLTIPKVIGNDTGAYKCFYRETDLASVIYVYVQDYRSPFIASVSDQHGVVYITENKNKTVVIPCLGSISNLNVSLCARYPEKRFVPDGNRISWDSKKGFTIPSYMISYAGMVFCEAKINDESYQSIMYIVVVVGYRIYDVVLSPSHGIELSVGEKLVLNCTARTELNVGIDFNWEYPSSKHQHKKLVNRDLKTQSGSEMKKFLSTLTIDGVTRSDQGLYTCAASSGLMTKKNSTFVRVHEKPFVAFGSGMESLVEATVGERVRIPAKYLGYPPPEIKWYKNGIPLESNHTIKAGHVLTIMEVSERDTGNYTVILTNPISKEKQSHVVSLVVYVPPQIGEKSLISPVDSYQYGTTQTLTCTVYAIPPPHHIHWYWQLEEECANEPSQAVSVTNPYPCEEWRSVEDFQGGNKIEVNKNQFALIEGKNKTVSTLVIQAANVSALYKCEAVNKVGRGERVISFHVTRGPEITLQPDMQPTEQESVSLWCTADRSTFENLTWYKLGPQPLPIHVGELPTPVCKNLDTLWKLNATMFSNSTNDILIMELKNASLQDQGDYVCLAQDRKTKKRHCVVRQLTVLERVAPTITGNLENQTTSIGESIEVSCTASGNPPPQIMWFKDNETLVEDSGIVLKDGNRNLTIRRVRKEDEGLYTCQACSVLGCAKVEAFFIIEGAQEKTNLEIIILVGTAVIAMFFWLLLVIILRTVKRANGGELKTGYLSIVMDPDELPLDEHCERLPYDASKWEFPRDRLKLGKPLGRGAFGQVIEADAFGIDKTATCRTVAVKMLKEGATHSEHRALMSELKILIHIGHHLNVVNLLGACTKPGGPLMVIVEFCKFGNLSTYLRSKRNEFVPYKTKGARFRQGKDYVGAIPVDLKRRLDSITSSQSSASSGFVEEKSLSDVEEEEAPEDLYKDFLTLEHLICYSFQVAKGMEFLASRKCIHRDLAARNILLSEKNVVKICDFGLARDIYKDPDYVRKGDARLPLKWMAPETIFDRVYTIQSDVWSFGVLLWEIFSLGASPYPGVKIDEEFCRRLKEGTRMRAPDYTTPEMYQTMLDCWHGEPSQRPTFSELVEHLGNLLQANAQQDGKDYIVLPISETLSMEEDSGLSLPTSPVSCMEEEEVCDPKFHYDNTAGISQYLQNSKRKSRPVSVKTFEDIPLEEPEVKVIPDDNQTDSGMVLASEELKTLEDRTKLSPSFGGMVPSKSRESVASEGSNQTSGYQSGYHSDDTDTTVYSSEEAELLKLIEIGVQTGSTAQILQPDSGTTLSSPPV
Sequence of EPHA2 (P29317 24-976): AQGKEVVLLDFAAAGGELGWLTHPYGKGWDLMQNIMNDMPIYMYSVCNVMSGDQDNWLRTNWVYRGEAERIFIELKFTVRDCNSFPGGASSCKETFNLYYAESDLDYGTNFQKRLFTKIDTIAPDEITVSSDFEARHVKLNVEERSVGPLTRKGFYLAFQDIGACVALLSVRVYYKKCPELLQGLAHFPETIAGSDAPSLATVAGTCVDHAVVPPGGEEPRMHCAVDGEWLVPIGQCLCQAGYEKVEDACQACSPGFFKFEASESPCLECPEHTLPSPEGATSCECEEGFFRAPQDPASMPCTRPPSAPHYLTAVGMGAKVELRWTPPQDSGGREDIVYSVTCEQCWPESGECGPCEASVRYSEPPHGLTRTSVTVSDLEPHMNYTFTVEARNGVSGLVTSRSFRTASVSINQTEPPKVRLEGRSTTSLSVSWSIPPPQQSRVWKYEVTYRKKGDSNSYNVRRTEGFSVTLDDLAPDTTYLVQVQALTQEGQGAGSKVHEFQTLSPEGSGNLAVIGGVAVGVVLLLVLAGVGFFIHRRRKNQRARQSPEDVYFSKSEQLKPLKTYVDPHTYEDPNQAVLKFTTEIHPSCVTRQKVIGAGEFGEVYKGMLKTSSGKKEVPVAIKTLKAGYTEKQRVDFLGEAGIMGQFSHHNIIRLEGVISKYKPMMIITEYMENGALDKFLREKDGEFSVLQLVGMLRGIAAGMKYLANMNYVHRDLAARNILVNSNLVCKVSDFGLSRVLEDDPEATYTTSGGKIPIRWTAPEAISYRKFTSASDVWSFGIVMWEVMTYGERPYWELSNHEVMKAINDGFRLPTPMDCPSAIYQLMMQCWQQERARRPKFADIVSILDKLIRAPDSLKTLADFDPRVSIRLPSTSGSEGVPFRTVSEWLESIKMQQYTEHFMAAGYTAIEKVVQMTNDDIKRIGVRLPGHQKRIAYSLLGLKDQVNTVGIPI
Sequence of FGFR1 (P11362 22-822): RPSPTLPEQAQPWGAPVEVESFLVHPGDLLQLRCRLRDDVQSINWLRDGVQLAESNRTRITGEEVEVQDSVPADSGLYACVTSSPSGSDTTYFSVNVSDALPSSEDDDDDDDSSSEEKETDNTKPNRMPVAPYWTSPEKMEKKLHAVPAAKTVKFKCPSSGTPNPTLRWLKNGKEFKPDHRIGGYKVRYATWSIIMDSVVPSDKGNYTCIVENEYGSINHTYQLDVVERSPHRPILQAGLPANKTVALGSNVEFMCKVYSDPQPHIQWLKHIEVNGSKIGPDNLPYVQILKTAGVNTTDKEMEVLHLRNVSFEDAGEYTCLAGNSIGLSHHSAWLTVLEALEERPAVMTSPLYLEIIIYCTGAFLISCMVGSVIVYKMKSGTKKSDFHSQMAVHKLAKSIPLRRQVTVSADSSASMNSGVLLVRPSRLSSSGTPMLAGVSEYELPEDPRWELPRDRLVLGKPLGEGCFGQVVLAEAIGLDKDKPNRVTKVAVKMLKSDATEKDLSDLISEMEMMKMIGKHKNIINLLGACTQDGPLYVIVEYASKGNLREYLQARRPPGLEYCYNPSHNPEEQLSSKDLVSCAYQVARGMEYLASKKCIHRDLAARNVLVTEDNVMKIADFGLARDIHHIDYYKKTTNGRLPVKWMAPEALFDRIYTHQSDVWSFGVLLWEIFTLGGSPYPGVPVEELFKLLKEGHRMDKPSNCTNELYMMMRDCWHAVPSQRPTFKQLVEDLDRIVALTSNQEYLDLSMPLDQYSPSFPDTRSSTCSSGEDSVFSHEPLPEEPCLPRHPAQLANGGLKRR
Sequence of p38 alpha (Q16539 whole entry): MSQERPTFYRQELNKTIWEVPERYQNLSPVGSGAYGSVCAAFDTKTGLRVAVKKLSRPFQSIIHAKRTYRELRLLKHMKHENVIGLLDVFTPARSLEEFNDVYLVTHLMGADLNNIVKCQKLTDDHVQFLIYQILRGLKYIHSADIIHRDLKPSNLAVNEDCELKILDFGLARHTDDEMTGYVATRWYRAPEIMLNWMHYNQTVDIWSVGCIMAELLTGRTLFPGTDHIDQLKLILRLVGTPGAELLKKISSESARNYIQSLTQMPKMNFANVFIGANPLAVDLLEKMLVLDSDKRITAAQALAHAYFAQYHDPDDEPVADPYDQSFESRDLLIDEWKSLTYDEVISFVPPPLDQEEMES
Sequence of MINK (Q8N4C8 whole entry): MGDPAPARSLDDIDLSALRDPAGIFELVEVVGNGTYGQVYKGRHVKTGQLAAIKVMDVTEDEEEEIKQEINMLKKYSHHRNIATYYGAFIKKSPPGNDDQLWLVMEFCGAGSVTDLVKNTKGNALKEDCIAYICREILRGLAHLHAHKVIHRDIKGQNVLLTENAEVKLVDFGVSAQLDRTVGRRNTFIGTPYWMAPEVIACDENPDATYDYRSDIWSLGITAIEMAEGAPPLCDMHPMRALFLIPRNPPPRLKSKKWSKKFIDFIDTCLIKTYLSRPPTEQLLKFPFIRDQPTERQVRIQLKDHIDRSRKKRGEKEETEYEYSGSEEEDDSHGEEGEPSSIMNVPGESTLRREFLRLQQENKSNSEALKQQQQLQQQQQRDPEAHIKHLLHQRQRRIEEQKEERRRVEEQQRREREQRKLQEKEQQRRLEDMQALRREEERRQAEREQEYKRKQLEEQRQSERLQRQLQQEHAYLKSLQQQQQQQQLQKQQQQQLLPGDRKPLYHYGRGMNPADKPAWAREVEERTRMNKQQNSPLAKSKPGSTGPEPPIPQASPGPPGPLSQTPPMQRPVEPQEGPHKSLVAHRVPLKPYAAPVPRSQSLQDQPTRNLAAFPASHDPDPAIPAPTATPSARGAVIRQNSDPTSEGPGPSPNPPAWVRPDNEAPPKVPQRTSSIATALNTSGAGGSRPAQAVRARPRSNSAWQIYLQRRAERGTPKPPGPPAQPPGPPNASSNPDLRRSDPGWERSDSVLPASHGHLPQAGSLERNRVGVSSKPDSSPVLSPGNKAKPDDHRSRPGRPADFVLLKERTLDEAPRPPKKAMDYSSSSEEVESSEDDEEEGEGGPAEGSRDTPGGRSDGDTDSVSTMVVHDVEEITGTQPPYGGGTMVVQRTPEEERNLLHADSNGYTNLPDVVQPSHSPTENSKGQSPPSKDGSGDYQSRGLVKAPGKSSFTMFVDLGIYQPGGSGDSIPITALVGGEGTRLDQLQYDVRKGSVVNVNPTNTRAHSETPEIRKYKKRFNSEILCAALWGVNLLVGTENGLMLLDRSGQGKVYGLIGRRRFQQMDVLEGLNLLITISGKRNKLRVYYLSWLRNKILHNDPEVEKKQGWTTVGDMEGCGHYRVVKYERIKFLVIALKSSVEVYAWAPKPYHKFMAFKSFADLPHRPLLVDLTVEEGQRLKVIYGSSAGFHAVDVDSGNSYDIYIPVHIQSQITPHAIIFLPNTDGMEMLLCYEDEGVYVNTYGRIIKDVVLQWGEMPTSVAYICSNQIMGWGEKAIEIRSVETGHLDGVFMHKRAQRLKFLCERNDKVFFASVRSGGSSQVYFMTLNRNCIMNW

CCOC(=O)/C=C/[C@H](C[C@@H]1CCNC1=O)NC(=O)[C@@H](CC(=O)[C@@H](NC(=O)c1cc(C)on1)C(C)C)Cc1ccc(F)cc1 [AG7088, reference compound]
EC50 [1]: 12 nM | CC50 [2]: > 1000 nM

Nc1nc2c(ncn2COCCO)c(=O)[nH]1 [Acyclovir, reference compound]
EC50 [3]: 655 nM | CC50 [4]: > 10 µM

C=C1[C@H](CO)[C@@H](O)C[C@@H]1n1cnc2c(=O)[nH]c(N)nc21 [Entecavir, reference compound]
EC50 [5]: 0.338 nM | CC50 [6]: > 20 nM

CCOC(=O)C1=C[C@@H](OC(CC)CC)[C@H](NC(C)=O)[C@@H](N)C1 [Oseltamivir]
EC50 [7]: 1340 ± 1920 nM | EC50 [8]: 4890 ± 7370 nM | EC50 [9]: 2430 ± 1240 nM | EC50 [10]: 10.1 ± 9.82 µM | EC50 [11]: 5620 ± 2780 nM | EC50 [12]: 2940 ± 3620 nM | IC50 [13]: 175 µM | IC50 [14]: 1690 µM | IC50 [15]: 1650 µM | body weight of mice [16]: did not significantly reduce the body weight | survival rate vs vehicle [16]: could improve the survival rate | time of death relative to vehicle group [16]: died after 7 h—earlier than in the vehicle group | animals died (of n = 8) [17]: five | day on which body weight of surviving mice began to recover [17]: 9 days | day on which weight of surviving mice increased gradually [17]: 9th | mice died (of n = 8) [17]: three | mortality rate [18]: 90% | viral load in nasal lavage fluid vs vehicle [19]: decreased significantly | CC50 [20]: > 100 µM | CC50 [21]: > 100 µM

Cc1cc(CCCOc2c(C)cc(-c3noc(C(F)(F)F)n3)cc2C)on1 [Pleconaril, reference compound]
EC50 [22]: 28 nM | CC50 [23]: > 5 µM

O=C(O)[C@H]1C2CCC(CC2)[C@@H]1Nc1nc(-c2c[nH]c3ncc(F)cc23)ncc1F [VX-787, reference compound]
IC50 ([24]; read-out: IC50, Mean ± SEM): 1.45 ± 0.34 nM | IC50 ([24]; read-out: IC50, experiment 1): 1.28 nM | IC50 ([24]; read-out: IC50, experiment 2): 1.23 nM | IC50 ([24]; read-out: IC50, experiment 3): 1.84 nM | IC50 [25]: > 10 µM | IC50 [26]: > 10 µM | IC50 [27]: > 10 µM | IC50 [28]: > 10 µM | IC50 [29]: > 3.33 µM | IC50 [30]: > 10 µM | IC50 [31]: > 10 µM | IC50 [32]: > 10 µM | IC50 [33]: > 10 µM | IC50 [34]: > 10 µM | IC50 [35]: > 10 µM | EC50 [7]: 0.295 ± 0.111 nM | EC50 [36]: 0.162 ± 0.034 nM | EC50 [8]: 0.76 ± 0.355 nM | EC50 [9]: 0.206 ± 0.061 nM | EC50 [10]: 0.000315 ± 7e-05 µM | EC50 [11]: 0.255 ± 0.055 nM | EC50 [12]: > 10 nM | IC50 [13]: 0.000834 ± 0.000204 µM | IC50 [14]: 0.00192 ± 0.000492 µM | IC50 [15]: 9.18e-05 ± 1.45e-05 µM | EC50 [37]: 0.24 ± 0.14 nM | EC50 [38]: 0.15 ± 0.02 nM | day on which mice began to regain body weight [39]: 4 days | body weight of mice [16]: did not significantly reduce the body weight | survival rate vs vehicle [16]: could improve the survival rate | time of death relative to vehicle group [16]: died after 7 h—earlier than in the vehicle group | animals died (of n = 8) [17]: four | day on which body weight of surviving mice began to recover [17]: 8 days | day on which weight of surviving mice increased gradually [17]: 8th | mice died (of n = 8) [17]: no mice died | survival rate [17]: 100% | mortality rate [18]: 70% | viral load in nasal lavage fluid vs vehicle [19]: decreased but showed no statistical significance | CC50 [40]: 21.1 ± 9.76 µM | IC50 [41]: 1110 nM | IC50 [42]: > 10 µM | IC50 [43]: > 10 µM | IC50 [44]: > 10 µM | IC50 [45]: > 10 µM | IC50 [46]: 1780 nM | IC50 [47]: > 10 µM | IC50 [48]: > 3.33 µM | IC50 [49]: > 10 µM | IC50 [50]: > 10 µM | IC50 [51]: > 10 µM | IC50 [52]: > 10 µM | IC50 [53]: > 3.33 µM
